In ChEMBL document CHEMBL3046689, “Volatile aldehydes are promising broad-spectrum postharvest insecticides” (J Agric Food Chem, 2000):
In brackets after ≈: the same amount, converted by molar mass. Activity calls are given as the source filed them. The calls are words filed in the database; no cut-off is given here.

Experiments:
Pseudococcus viburni = experiment: Insecticidal activity against Pseudococcus viburni; format: functional, organism-based
Lactuca sativa [1] = experiment: Phytotoxicity in naked Lactuca sativa (lettuce) assessed as residual aldehyde odor after compound application through two-tier reduced pressure fumigation at 30 mmHg for 0.5 hr and then 760 mmHg for 1.5 hr at 23 +/- 1 degC after 2 hr; format: organism-based; conditions: in vivo
Pseudococcus affinis = experiment: Insecticidal activity against Pseudococcus affinis; format: functional, organism-based
Lactuca sativa [2] = experiment: Phytotoxicity in naked Lactuca sativa (lettuce) assessed as change in visual quality after compound application through two-tier reduced pressure fumigation at 30 mmHg for 0.5 hr and then 760 mmHg for 1.5 hr at 23 +/- 1 degC after 2 hr; format: organism-based; conditions: in vivo
Brevicoryne brassicae = experiment: Insecticidal activity against Brevicoryne brassicae (cabbage aphids); format: functional, organism-based
[3] = system: Frankliniella occidentalis; experiment: Insecticidal activity against Frankliniella occidentalis (western flower thrips); format: functional, organism-based
Bemisia = experiment: Insecticidal activity against Bemisia sp.; format: functional, organism-based
Tetranychus urticae = experiment: Insecticidal activity against Tetranychus urticae (two-spotted spider mite); format: functional, organism-based
Myzus persicae [4] = experiment: Insecticidal activity against Myzus persicae (green peach aphid) placed under third leaf of naked Iceburg lettuce heads and after compound application for 2 hr through two-tier reduced pressure fumigation at 30 mmHg for 0.5 hr and then 760 mmHg for 1.5 hr at 23 +/- 1 degC measured after 24 hr; format: functional; conditions: for LC50: Myzus persicae, read-out: LD50 (the source's name)
Malus domestica [5] = experiment: Phytotoxicity in Malus x domestica (apple) assessed as induction of olfactory damage after compound application for 1 hr through two-tier reduced pressure fumigation at 30 mmHg for 0.5 hr and then 760 mmHg for 1.5 hr at 23 +/- 1 degC; format: organism-based; conditions: in vivo
[6] = system: Brassica oleracea var. capitata; experiment: Phytotoxicity in Brassica oleracea var. capitata (cabbage) assessed as induction of olfactory damage after compound application for 1 hr through two-tier reduced pressure fumigation at 30 mmHg for 0.5 hr and then 760 mmHg for 1.5 hr at 23 +/- 1 degC; format: organism-based; conditions: in vivo
Citrus x paradisi [7] = experiment: Phytotoxicity in Citrus x paradisi (grape fruit) assessed as induction of olfactory damage after compound application for 1 hr through two-tier reduced pressure fumigation at 30 mmHg for 0.5 hr and then 760 mmHg for 1.5 hr at 23 +/- 1 degC; format: organism-based; conditions: in vivo
Lactuca sativa [8] = experiment: Phytotoxicity in naked Lactuca sativa (lettuce) assessed as induction of olfactory damage after compound application for 1 hr through two-tier reduced pressure fumigation at 30 mmHg for 0.5 hr and then 760 mmHg for 1.5 hr at 23 +/- 1 degC; format: organism-based; conditions: in vivo
Myzus persicae [9] = experiment: Insecticidal activity against Myzus persicae (green peach aphid) infested wrapped lettuce applied for 1 hr through two-tier reduced pressure fumigation at 30 mmHg for 0.5 hr and then 760 mmHg for 1.5 hr at 23 +/- 1 degC measured 24 hr; format: functional, organism-based
Vitis vinifera [10] = experiment: (§1) Phytotoxicity in Vitis vinifera assessed as induction of olfactory damage after compound application for 1 hr through two-tier reduced pressure fumigation at 30 mmHg for 0.5 hr and then 760 mmHg for 1.5 hr at 23 +/- 1 degC; format: organism-based; conditions: in vivo
Vitis vinifera [11] = experiment: (§2) Phytotoxicity in Vitis vinifera assessed as induction of visual damage after compound application for 1 hr through two-tier reduced pressure fumigation at 30 mmHg for 0.5 hr and then 760 mmHg for 1.5 hr at 23 +/- 1 degC; format: organism-based; conditions: in vivo
Vitis vinifera [12] = experiment: as §2; format: organism-based; conditions: in vivo; remark: listed apart in the source
Persea americana [13] = experiment: Phytotoxicity in Persea americana (avocado) assessed as induction of olfactory damage after compound application for 1 hr through two-tier reduced pressure fumigation at 30 mmHg for 0.5 hr and then 760 mmHg for 1.5 hr at 23 +/- 1 degC; format: organism-based; conditions: in vivo
[14] = system: Brassica oleracea var. italica; experiment: Phytotoxicity in Brassica oleracea var. italica assessed as induction of olfactory damage after compound application for 1 hr through two-tier reduced pressure fumigation at 30 mmHg for 0.5 hr and then 760 mmHg for 1.5 hr at 23 +/- 1 degC; format: organism-based; conditions: in vivo
Oryza sativa = experiment: Phytotoxicity in Oryza sativa (rice) assessed as induction of olfactory damage after compound application for 1 hr through two-tier reduced pressure fumigation at 30 mmHg for 0.5 hr and then 760 mmHg for 1.5 hr at 23 +/- 1 degC; format: organism-based; conditions: in vivo
[15] = system: Brassica oleracea var. italica; experiment: Phytotoxicity in Brassica oleracea var. italica after compound application for 1 hr through two-tier reduced pressure fumigation at 30 mmHg for 0.5 hr and then 760 mmHg for 1.5 hr at 23 +/- 1 degC; format: organism-based; conditions: in vivo
Citrus x paradisi [16] = experiment: Phytotoxicity in Citrus x paradisi (grape fruit) assessed as induction of visual damage after compound application for 1 hr through two-tier reduced pressure fumigation at 30 mmHg for 0.5 hr and then 760 mmHg for 1.5 hr at 23 +/- 1 degC; format: organism-based; conditions: in vivo
Lactuca sativa [17] = experiment: Phytotoxicity in wrapped Lactuca sativa (lettuce) assessed as induction of olfactory damage after compound application for 1 hr through two-tier reduced pressure fumigation at 30 mmHg for 0.5 hr and then 760 mmHg for 1.5 hr at 23 +/- 1 degC; format: organism-based; conditions: in vivo
Lactuca sativa [18] = experiment: Phytotoxicity in naked Lactuca sativa (lettuce) after compound application for 1 hr through two-tier reduced pressure fumigation at 30 mmHg for 0.5 hr and then 760 mmHg for 1.5 hr at 23 +/- 1 degC; format: organism-based; conditions: in vivo
Myzus persicae [19] = experiment: Insecticidal activity against Myzus persicae (green peach aphid) infested naked lettuce applied for 1 hr through two-tier reduced pressure fumigation at 30 mmHg for 0.5 hr and then 760 mmHg for 1.5 hr at 23 +/- 1 degC measured 24 hr; format: functional, organism-based
Vitis vinifera [20] = experiment: as §1; format: organism-based; conditions: in vivo; remark: listed apart in the source
Malus domestica [21] = experiment: Phytotoxicity in Malus x domestica (apple) assessed as induction of visual damage after compound application for 1 hr through two-tier reduced pressure fumigation at 30 mmHg for 0.5 hr and then 760 mmHg for 1.5 hr at 23 +/- 1 degC; format: organism-based; conditions: in vivo
Lactuca sativa [22] = experiment: Phytotoxicity in naked Lactuca sativa (lettuce) assessed as change in visual quality after compound application for 1 hr through two-tier reduced pressure fumigation at 30 mmHg for 0.5 hr and then 760 mmHg for 1.5 hr at 23 +/- 1 degC; format: organism-based; conditions: in vivo
Persea americana [23] = experiment: Phytotoxicity in Persea americana (avocado) assessed as induction of visual damage after compound application for 1 hr through two-tier reduced pressure fumigation at 30 mmHg for 0.5 hr and then 760 mmHg for 1.5 hr at 23 +/- 1 degC; format: organism-based; conditions: in vivo
[24] = system: Brassica oleracea var. capitata; experiment: Phytotoxicity in Brassica oleracea var. capitata (cabbage) after compound application for 1 hr through two-tier reduced pressure fumigation at 30 mmHg for 0.5 hr and then 760 mmHg for 1.5 hr at 23 +/- 1 degC; format: organism-based; conditions: in vivo

For CCC/C=C/C=O, the Activity (Pseudococcus viburni) was “Active”, the Activity (Lactuca sativa [1]) was “Toxic” and the Activity (Pseudococcus affinis) was “Active”. For the same molecule, the Activity (Lactuca sativa [2]) was “Toxic”, the Activity (Brevicoryne brassicae) was “inactive” and the Activity [3] was “Active”. For the same molecule, the Activity (Bemisia) was “Active”, the Activity (Tetranychus urticae) was “inactive” and the LD90 (Myzus persicae [4]) was 54.4 mg/L. For the same molecule, the LC50 (Myzus persicae [4]) was 24.3 µg/mL (≈ 248 µM).

For CCC(C)C=O (configuration not stated) [2-METHYLBUTANAL], the Activity (Pseudococcus viburni) was “Active”, the Activity (Lactuca sativa [1]) was “Toxic” and the Activity (Pseudococcus affinis) was “Active”. For the same molecule, the Activity (Lactuca sativa [2]) was “Toxic”, the Activity (Brevicoryne brassicae) was “inactive” and the Activity [3] was “Active”. For the same molecule, the Activity (Bemisia) was “Active”, the Activity (Tetranychus urticae) was “inactive” and the LD90 (Myzus persicae [4]) was 184.4 mg/L. For the same molecule, the LC50 (Myzus persicae [4]) was 138 µg/mL (≈ 1610 µM).

In the case of CCCC(C)C=O (configuration not stated) [2-METHYLPENTANAL], the Activity (Pseudococcus viburni) is reported as “Active”, the Activity (Lactuca sativa [1]) is reported as “Toxic” and the Activity (Pseudococcus affinis) is reported as “Active”. The Activity (Lactuca sativa [2]) was “Toxic”, the Activity (Brevicoryne brassicae) was “inactive” and the Activity [3] was “Active”. The Activity (Bemisia) was “Active”, the Activity (Tetranychus urticae) was “inactive” and the LD90 (Myzus persicae [4]) was 54.2 mg/L. The LC50 (Myzus persicae [4]) was 39.9 µg/mL (≈ 398 µM).

In the case of C/C=C(\C)C=O [2-methyl-(E)-2-butenal], the Activity (Malus domestica [5]) is reported as “Non-toxic”, the Activity [6] is reported as “Toxic” and the Activity (Citrus x paradisi [7]) is reported as “Non-toxic”. The Activity (Lactuca sativa [8]) was “Toxic”, the Activity (Myzus persicae [9]) was “Active” and the Activity (Vitis vinifera [10]) was “Non-toxic”. The Activity (Vitis vinifera [11]) was “Non-toxic”, the Activity (Pseudococcus viburni) was “Active” and the Activity (Lactuca sativa [1]) was “Toxic”. The Activity (Pseudococcus affinis) was “Active”, the Activity (Lactuca sativa [2]) was “Toxic” and the Activity (Vitis vinifera [12]) was “Non-toxic”. The Activity (Brevicoryne brassicae) was “inactive”, the Activity (Persea americana [13]) was “Non-toxic” and the Activity [3] was “Active”. For the same molecule, the Activity [14] was “Toxic”, the Activity (Oryza sativa) was “Toxic” and the Activity [15] was “Toxic”. For the same molecule, the Activity (Citrus x paradisi [16]) was “Non-toxic”, the Activity (Bemisia) was “Active” and the Activity (Tetranychus urticae) was “inactive”. The Activity (Lactuca sativa [17]) was “Toxic”, the Activity (Lactuca sativa [18]) was “Toxic” and the Activity (Myzus persicae [19]) was “Active”. The Activity (Vitis vinifera [20]) was “Non-toxic”, the Activity (Malus domestica [21]) was “Non-toxic” and the Activity (Lactuca sativa [22]) was “Toxic”. The Activity (Persea americana [23]) was “Non-toxic”, the Activity [24] was “Toxic” and the CTP (Myzus persicae [4]) was 310 mg/L.hr. The LD90 (Myzus persicae [4]) was 123.6 mg/L and the LC50 (Myzus persicae [4]) was 76.6 µg/mL (≈ 911 µM).

For CC/C=C(\C)C=O [2-methyl-(E)-2-pentenal], the Activity (Pseudococcus viburni) was “Active”, the Activity (Lactuca sativa [1]) was “Toxic” and the Activity (Pseudococcus affinis) was “Active”. For the same molecule, the Activity (Lactuca sativa [2]) was “Toxic”, the Activity (Brevicoryne brassicae) was “inactive” and the Activity [3] was “Active”. The Activity (Bemisia) was “Active”, the Activity (Tetranychus urticae) was “inactive” and the LD90 (Myzus persicae [4]) was 85.8 mg/L. The LC50 (Myzus persicae [4]) was 33.5 µg/mL (≈ 341 µM).
